These results are taken from patent US7495011B2 (priority 2003, dated 2009).

Structures are written as SMILES.

Data set [1] has as its system SARS virus. Type of data set: cell-based, SARS-associated coronavirus. To be noted: 10 μM, Vero cells, FIG. 1D.
Data set [2] concerns SARS virus. It is filed as cell-based, SARS-associated coronavirus. The settings on record: 10 μM, FIG. 1B.
Data set [3] deals with SARS virus. The experiment in a line: microbe, parasite or virus in culture. The settings on record: Severe acute respiratory syndrome coronavirus, Vero, read-out: EC50 (concentration required to inhibit cytopathic effects by viral infection to 50% of the control value). It is filed as cell-based, SARS-associated coronavirus. Background: Cytopathic effects are the visible damage that an infection or toxin causes in cultured cells.

Data set [4] in a line: in vitro. To be noted: African green monkey.
The subject of data set [5] is SARS virus. It is filed as cell-based, SARS-associated coronavirus. The settings on record: 10 μM, FIG. 1E.
Data set [6] has as its system SARS virus. To be noted: background art; cited from earlier work.

As to `Cc1c(O)cccc1C(=O)N[C@@H](CSc1ccccc1)[C@H](O)CN1C[C@H]2CCCC[C@H]2C[C@H]1C(=O)NC(C)(C)C` [Nelfinavir, nelfinavir], the “SARS virus infection by immunofluorescence antibody staining” value in data set [1] is given as “advantageously controlled”. For the same compound, in data set [2], the “Morphology of SARS virus-infected Vero cells” value was “had the same morphology as normal cells”. In addition, the EC50 in data set [3] is 0.0484 µM. For the same compound, the CC50 in data set [4] was determined as 14.6 µM. Moreover, the “RNA levels of the SARS virus in Vero cells (RT-PCR)” value in data set [5] was “highly inhibitive against the propagation of the SARS virus”.

In the case of `CC1(C)[C@@H](O[C@H]2O[C@H](C(=O)O)[C@@H](O)[C@H](O)[C@H]2O[C@@H]2O[C@H](C(=O)O)[C@@H](O)[C@H](O)[C@H]2O)CC[C@]2(C)[C@H]3C(=O)C=C4[C@@H]5C[C@@](C)(C(=O)O)CC[C@]5(C)CC[C@@]4(C)[C@]3(C)CC[C@@H]12` [Glycyrrhizin, glycyrrhizin], the “Efficacy against the SARS virus as reported in the literature” value in data set [6] is reported as “extremely limited potency”. Moreover, the EC50 in data set [3] turned out to be 364 µM. The CC50 in data set [4] was above 24300 µM.
